Assay results from ChEMBL document CHEMBL4610062, “Cytotoxic and non-cytotoxic cardiac glycosides isolated from the combined flowers, leaves, and twigs of Streblus asper” (Bioorg Med Chem, 2020).

What was measured:
[1] = Inhibition of Sodium/potassium-transporting ATPase in porcine cerebral cortex using ATP as substrate incubated for 15 mins by ADP-Glo Max Assay; design: species or system Sus scrofa
[2] = system: OVCAR-3; assay: Cytotoxicity against human OVCAR3 cells assessed as inhibition of cell viability incubated for 72 hrs by MTS assay; assay type: functional, cell-based; conditions: OVCAR-3, 72 h
[3] = Cytotoxicity against human MDA-MB-435 cells assessed as inhibition of cell viability incubated for 72 hrs by MTS assay
[4] = system: HT-29; assay: Cytotoxicity against human HT-29 cells assessed as inhibition of cell viability incubated for 72 hrs by MTS assay; assay type: functional, cell-based; conditions: HT-29, 72 h

| SMILES | IC50 [1] | IC50 [2] | IC50 [3] | IC50 [4] |
| --- | --- | --- | --- | --- |
| CO[C@H]1[C@H](O[C@H]2CC[C@]3(C=O)[C@H]4CC[C@]5(C)[C@](O)(C6=CC(=O)OC6)CC[C@]5(O)[C@@H]4CC[C@]3(O)C2)O[C@H](C)[C@H](O)[C@@H]1OC | 232 µM | > 20 µM | > 20 µM | > 20 µM |
| CO[C@H]1[C@H](O[C@H]2CC[C@]3(C=O)[C@H]4CC[C@]5(C)[C@@H]6CC[C@]5(O[C@H]5OC(=O)C[C@H]56)[C@@H]4CC[C@]3(O)C2)O[C@H](C)[C@H](O)[C@@H]1OC | – | > 20 µM | > 20 µM | > 20 µM |
| C[C@H]1O[C@@H](O[C@H]2[C@@H](O)C[C@H](O[C@H]3[C@@H](O)C[C@H](O[C@H]4CC[C@@]5(C)[C@H](CC[C@@H]6[C@@H]5CC[C@]5(C)[C@@H](C7=CC(=O)OC7)CC[C@]65O)C4)O[C@@H]3C)O[C@@H]2C)C[C@H](O)[C@@H]1O [DIGITOXIN] | 0.127 µM | – | – | – |
| CC(=O)O[C@H]1C(=O)[C@@]2(C)[C@H]([C@H](OC(=O)c3ccccc3)[C@]3(O)C[C@H](OC(=O)[C@H](O)[C@@H](NC(=O)c4ccccc4)c4ccccc4)C(C)=C1C3(C)C)[C@]1(OC(C)=O)CO[C@@H]1C[C@@H]2O [PACLITAXEL] | – | – | 0.0015 µM | – |
